Results from ChEMBL document CHEMBL1132840, “Benzylidene ketal derivatives as M2 muscarinic receptor antagonists” (Bioorg Med Chem Lett, 2000).

Key:
[1] = target: Muscarinic acetylcholine receptors; M2 & M3 (Homo sapiens) (UniProt P20309+P08172); assay: Selectivity ratio for M3 muscarinic receptor compared to M2 muscarinic receptor.; format: protein assay
[2] = target: T1, Muscarinic acetylcholine receptor M2 (Homo sapiens, UniProt P08172); assay: Binding affinity at human cloned acetylcholine receptor M2 in CHO cells.; format: cell-based
T1 sequence (P08172 whole entry): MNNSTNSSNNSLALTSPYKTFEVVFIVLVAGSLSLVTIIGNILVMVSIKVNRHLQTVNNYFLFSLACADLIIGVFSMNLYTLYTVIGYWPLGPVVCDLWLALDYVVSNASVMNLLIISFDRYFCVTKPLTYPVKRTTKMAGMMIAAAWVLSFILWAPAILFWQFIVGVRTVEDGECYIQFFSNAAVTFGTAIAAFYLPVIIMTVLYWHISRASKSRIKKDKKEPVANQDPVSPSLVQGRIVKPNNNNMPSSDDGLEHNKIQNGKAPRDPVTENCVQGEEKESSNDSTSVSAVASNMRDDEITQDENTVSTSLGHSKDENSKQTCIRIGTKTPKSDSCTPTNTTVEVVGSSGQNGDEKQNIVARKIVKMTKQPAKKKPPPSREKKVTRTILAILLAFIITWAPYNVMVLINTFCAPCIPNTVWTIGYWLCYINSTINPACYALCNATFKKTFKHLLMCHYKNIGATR

[3] = target: Muscarinic acetylcholine receptors; M1 & M2 (Homo sapiens) (UniProt P11229+P08172); assay: Selectivity ratio for M1 muscarinic receptor compared to M2 muscarinic receptor.; format: protein assay
Chain of Muscarinic acetylcholine receptors; M1 & M2 (Homo sapiens) (P11229 whole entry, looked up, one chain of several): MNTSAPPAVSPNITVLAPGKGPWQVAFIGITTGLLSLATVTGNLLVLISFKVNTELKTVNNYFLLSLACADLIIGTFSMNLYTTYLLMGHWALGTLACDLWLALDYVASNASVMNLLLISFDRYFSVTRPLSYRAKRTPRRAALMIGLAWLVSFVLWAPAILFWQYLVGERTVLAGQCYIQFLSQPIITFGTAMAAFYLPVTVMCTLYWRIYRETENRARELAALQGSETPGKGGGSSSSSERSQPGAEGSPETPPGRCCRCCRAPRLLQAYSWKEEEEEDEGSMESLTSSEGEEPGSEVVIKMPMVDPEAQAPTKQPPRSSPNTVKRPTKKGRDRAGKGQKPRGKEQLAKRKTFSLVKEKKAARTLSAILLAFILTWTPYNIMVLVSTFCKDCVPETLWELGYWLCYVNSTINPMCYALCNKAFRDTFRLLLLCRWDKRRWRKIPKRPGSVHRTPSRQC

Row | SMILES | Ratio [1] | Ki [2] | Ratio [3]
1 | CCOC(=O)N1CCC(N2CCC(C(=O)c3ccc(S(=O)(=O)c4ccc(OC)cc4)cc3)CC2)CC1 | 10.2 | 2.91 nM | 26.8
2 | CCCS(=O)(=O)N1CCC(N2CCC(C(=O)c3ccc([S+]([O-])c4ccc5c(c4)OCO5)cc3)CC2)CC1 (centres undefined) | 11.8 | 34.8 nM | 4.6
3 | CCCS(=O)(=O)N1CCC(N2CCC(C3(c4ccc(S(=O)(=O)c5ccc6c(c5)OCO6)cc4)CCCO3)CC2)CC1 (centres undefined) | 0.24 | 5.07 nM | 0.22
4 | CCCS(=O)(=O)N1CCC(N2CCC(C3(c4ccc([S+]([O-])c5ccc6c(c5)OCO6)cc4)O[C@H](C)[C@@H](C)O3)CC2)CC1 (some centres undefined) | 12.9 | 9.09 nM | 7.5
5 | CCCS(=O)(=O)N1CCC(N2CCC(C3(c4ccc(S(=O)(=O)c5ccc6c(c5)OCO6)cc4)O[C@H](C)[C@@H](C)O3)CC2)CC1 | 46.1 | 1.22 nM | 8.7
6 | CCCS(=O)(=O)N1CCC(N2CCC(C3(c4ccc(S(=O)(=O)c5ccc6c(c5)OCO6)cc4)OCCO3)CC2)CC1 | 93 | – | 102
7 | CCOC(=O)N1CCC(N2CCC(C3(c4ccc(S(=O)(=O)c5ccc6c(c5)OCO6)cc4)O[C@H](C)[C@@H](C)O3)CC2)CC1 | 46 | 0.03 nM | 21.7
8 | CCOC(=O)N1CCC(N2CCC(C3(c4ccc(S(=O)(=O)c5ccc6c(c5)OCO6)cc4)O[C@@H](C)[C@H](C)O3)CC2)CC1 | 6.1 | 1.82 nM | 10.2
9 | CCOC(=O)N1CCC(N2CCC(C3(c4ccc(S(=O)(=O)c5ccc(OC)cc5)cc4)SCCCS3)CC2)CC1 | 2.9 | 14.3 nM | 4.4
10 | CCCS(=O)(=O)N1CCC(N2CCC(C3(c4ccc([S+]([O-])c5ccc6c(c5)OCO6)cc4)CCCO3)CC2)CC1 (centres undefined) | 0.5 | 12.1 nM | 0.49

Further lines, results first:

Row | Ratio [1] | Ki [2] | Ratio [3] | SMILES
11 | 12.8 | 0.82 nM | 10.7 | CCCS(=O)(=O)N1CCC(N2CCC(C3(c4ccc([S+]([O-])c5ccc6c(c5)OCO6)cc4)SCCS3)CC2)CC1 (centres undefined)
12 | 14.4 | 0.72 nM | 21 | CCOC(=O)N1CCC(N2CCC(C3(c4ccc(S(=O)(=O)c5ccc(OC)cc5)cc4)OCCCO3)CC2)CC1
13 | 93.4 | 1.02 nM | 42.6 | CCCS(=O)(=O)N1CCC(N2CCC(C(=O)c3ccc(S(=O)(=O)c4ccc5c(c4)OCO5)cc3)CC2)CC1
14 | 21.9 | 0.07 nM | 68.3 | C=C(c1ccc(S(=O)(=O)c2ccc(OC)cc2)cc1)C1CCN(C2CCN(C(=O)OCC)CC2)CC1
15 | 57.4 | 0.031 nM | 62.6 | CCCS(=O)(=O)N1CCC(N2CCC(C3(c4ccc(S(=O)(=O)c5ccc6c(c5)OCO6)cc4)SCCS3)CC2)CC1
16 | 3 | 0.11 nM | 22.5 | CCOC(=O)N1CCC(N2CCC(C3(c4ccc(S(=O)(=O)c5ccc(OC)cc5)cc4)SCCS3)CC2)CC1
17 | 7.1 | 0.16 nM | 28.3 | CCOC(=O)N1CCC(N2CCC(C3(c4ccc(S(=O)(=O)c5ccc(OC)cc5)cc4)OCCO3)CC2)CC1
18 | 10 | 0.823 nM | 10.8 | CCCS(=O)(=O)N1CCC(N2CCC(C3(c4ccc([S+]([O-])c5ccc6c(c5)OCO6)cc4)OCCO3)CC2)CC1 (centres undefined)
19 | 7.5 | 0.13 nM | 47.6 | CCOC(=O)N1CCC(N2CCC(C(=O)c3ccc(S(=O)(=O)c4ccc5c(c4)OCO5)cc3)CC2)CC1
20 | 1.3 | 0.073 nM | 4.1 | CCOC(=O)N1CCC(N2CCC(C3(c4ccc(S(=O)(=O)c5ccc6c(c5)OCO6)cc4)OCCO3)CC2)CC1
